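Compound exposure: 48 hours, 5 concentrations, 96-well plates. At the TGI there is no net growth.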
Assays:
Test in all cases: inhibition of tumour cell growth, NCI panel, 48 h
MCF7 breast = system: MCF7 breast
A498 renal = system: A498 renal
HCT-116 colon = system: HCT-116 colon
OVCAR-8 ovarian = system: OVCAR-8 ovarian
MALME-3M melanoma = system: MALME-3M melanoma
OVCAR-3 ovarian = system: OVCAR-3 ovarian
OVCAR-5 ovarian = system: OVCAR-5 ovarian
MDA-MB-435 = system: MDA-MB-435
K-562 leukemia = system: K-562 leukemia
MOLT-4 leukemia = system: MOLT-4 leukemia

SMILES | TGI (MCF7 breast) [µM] | TGI (A498 renal) [µM] | TGI (HCT-116 colon) [µM] | TGI (OVCAR-8 ovarian) [µM] | TGI (MALME-3M melanoma) [µM] | TGI (OVCAR-3 ovarian) [µM] | TGI (OVCAR-5 ovarian) [µM] | TGI (MDA-MB-435) [µM] | TGI (K-562 leukemia) [µM] | TGI (MOLT-4 leukemia) [µM]
CC1=NC2=Nc3nc(C)cc[n+]3CN2C=C1 | > 100 | > 100 | > 100 | > 100 | > 100 | > 100 | > 100 | > 100 |  | 
CC(C)(C)OC(=O)NC1CC2(C=C(Br)C(=O)C(Br)=C2)OC1=O (stereo unspecified) | 31.6 | 47.4 | 9.21 | 21.4 | 18.9 | 32.5 | 35.1 | 22.1 | 13.5 | 2.59
c1cc2c(cc1NC1=NCCO1)OCO2 | > 100 | > 100 | > 100 | > 100 | > 100 | > 100 | > 100 | > 100 | > 100 | > 100
CC(C)(C)OC(=O)N(CCCCNC(=O)OCc1ccccc1)CCCNC(=O)OCc1ccccc1 | > 100 | > 100 | > 100 | > 100 |  | > 100 | > 100 | > 100 | > 100 | 30
COC(=O)c1ccc(/C=C2\Oc3ccccc3C2=O)cc1 | > 100 |  | > 100 | > 100 |  | > 100 |  | > 100 |  | > 100
O=C(/C=C/c1ccccc1)CSc1ncn[nH]1 | > 100 |  | > 100 | > 100 | > 100 | > 100 | > 100 |  | > 100 | > 100
CCOC(=O)c1[nH]c(-c2[nH]c(-c3[nH]c(-c4[nH]c(C(=O)OCC)c(C)c4C(=O)OCC)c(C(=O)OCC)c3C)c(C)c2C(=O)OCC)c(C(=O)OCC)c1C | > 100 | > 100 | > 100 | > 100 | > 100 | > 100 | > 100 | > 100 | > 100 | > 100
COC(=O)CCC1=C(CC(=O)OC)C(C)(OC)N=C1NC(=O)OCc1ccccc1 (stereo unspecified) | > 100 | > 100 | > 100 | > 100 | > 100 |  | > 100 | > 100 | > 100 | > 100
O=S(=O)(Nc1nc2ccccc2nc1Nc1ccc2ccccc2c1)c1ccccc1 | > 100 | > 100 | 24.8 | > 100 | > 100 | 8.96 | 81.2 | > 100 | > 100 | 65.1
COc1c(/C=C/C(C)(C)O)cc(C2CC(=O)c3c(O)cc(O)cc3O2)cc1CC=C(C)C (stereo unspecified) | 15.3 | 16.8 | 18.4 | 23.1 | 18 |  | 16.5 | 15.3 | 35.7 | 35
O=CNNC(=O)Nc1cccc2ccccc12 | > 100 |  | > 100 | > 100 | > 100 |  | > 100 | > 100 | > 100 | > 100
c1ccc(C(NCC2CCO2)(c2ccccc2)c2ccccc2)cc1 (stereo unspecified) | 31.7 | 36.1 | 56 | 26.6 | 35.1 | 34.5 | 30.5 | 46 | > 100 | > 100
O=[N+]([O-])c1ccc2c(c1)N([O-])C1(CCCCC1)[N+]2=O | 36.6 |  | 33.3 | 42.6 | 28.7 | 51 | 34.7 | 30.9 | > 100 | 51.9
CN(C)CCNC(=O)c1ccc(NCCCN(C)CCCNc2ccc(C(=O)NCCN(C)C)c3[nH]c4ccccc4c(=O)c23)c2c(=O)c3ccccc3[nH]c12 | 0.44 | 0.502 | 0.205 | 1.14 | 0.302 | 0.694 | 0.647 | 0.194 |  | 1.09
O=C(O)C(O)C(O)C(=O)O (stereo unspecified) | > 100 | > 100 | > 100 | > 100 | > 100 | > 100 | > 100 | > 100 | > 100 | > 100
O=C(OC1C2OC(=O)c3cc(O)c(O)c(O)c3Oc3cc4c(c(O)c3O)-c3c(cc(O)c(O)c3O)C(=O)OCC3OC(O)C(OC(=O)c5cc(O)c(O)c(O)c5Oc5cc6c(c(O)c5O)-c5c(cc(O)c(O)c5O)C(=O)OC1C(COC6=O)OC2O)C(OC(=O)c1cc(O)c(O)c(O)c1)C3OC4=O)c1cc(O)c(O)c(O)c1 (stereo unspecified) | > 100 |  | 57.2 | 81.3 | > 100 | > 100 | > 100 | 42.6 | 42.8 | 12.2
Cc1nc(C)c(N2CCN(S(=O)(=O)N(Cc3ccccc3)Cc3ccccc3)CC2)c(=O)[nH]1 | > 100 | > 75.7 | > 100 | 54.1 | > 100 | > 100 | > 100 | > 100 | > 100 | > 100
CCCCCCCCCCCCCCCCNC(=O)C(=O)/C=C(\O)c1ccc(C)cc1 | > 10 | > 10 |  | > 10 | > 10 | > 10 | > 10 | > 10 | > 10 | > 10
CC(=O)OC12C3C4C1C1C2C3C41OC(C)=O (stereo unspecified) | > 100 | > 100 | > 100 | > 100 |  | > 100 | > 100 | > 100 | > 100 | > 100
CCCC(CCC(N)=O)(CCC(N)=O)[N+](=O)[O-] | > 100 |  | > 100 | > 100 | > 100 |  | > 100 | > 100 | > 100 | > 100
O=C(O)CCC(=O)c1ccc2c(c1)C(C(=O)O)CC2 (stereo unspecified) | > 100 | > 100 | 2.25 | > 100 | > 100 | > 100 | > 100 | > 100 | > 100 | > 100
CN(C)c1ccc(C=NCC2CCCN3CCCCC23)cc1 (stereo unspecified) | > 100 |  | > 100 | > 100 | > 100 | > 100 | > 100 |  |  | 
